Results on 5 cell lines are retold here after the supplement of paper PMC10307832.

Test in all cases: relative viability (nuclei count vs DMSO), 5 days (fraction); higher = more cells survive
Compound in experiment [1]: O=c1[nH]cc(F)c(=O)[nH]1 [5-Fluorouracil] + Cc1nc(Nc2ncc(C(=O)Nc3c(C)cccc3Cl)s2)cc(N2CCN(CCO)CC2)n1 [Dasatinib] (partner 0.075 µM)
The method, boiled down: (§1)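 Lung cancer cell lines, seeded in 1536-well plates, were treated the following day by pin tool with a single drug or with five library-drug doses (not always all listed) in √10 steps on top of a fixed anchor-drug dose. Cells were fixed and nuclei stained in one step after 5 days, and nuclei were counted. Relative viability is the nuclei count for treated wells divided by that for vehicle wells, reported as medians of duplicate plates.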

Compound in experiment [2]: O=c1[nH]cc(F)c(=O)[nH]1 [5-Fluorouracil] + CC1(C)CCC(c2ccc(Cl)cc2)=C(CN2CCN(c3ccc(C(=O)NS(=O)(=O)c4ccc(N[C@H](CCN5CCOCC5)CSc5ccccc5)c(S(=O)(=O)C(F)(F)F)c4)cc3)CC2)C1 [Navitoclax] (partner 0.5 µM)
The method, boiled down: as §1

Compound in experiment [3]: O=c1[nH]cc(F)c(=O)[nH]1 [5-Fluorouracil] + Nc1nc2[nH]cc(CCc3ccc(C(=O)N[C@@H](CCC(=O)O)C(=O)O)cc3)c2c(=O)[nH]1 [Pemetrexed] (partner 0.2 µM)
The procedure, abridged:
as §1

Compound in experiment [4]: O=c1[nH]cc(F)c(=O)[nH]1 [5-Fluorouracil] + COc1cc2c(Oc3ccc(NC(=O)C4(C(=O)Nc5ccc(F)cc5)CC4)cc3F)ccnc2cc1OCCCN1CCOCC1 [Foretinib] (partner 0.25 µM)
The procedure, abridged: as §1

As for LC-2-ad, the relative viability in experiment [1] (first compound 0.02 µM) is 0.785; in experiment [1] (first compound 0.2 µM), 0.354; in experiment [1] (first compound 0.6325 µM), 0.328; in experiment [1] (first compound 2 µM) it was 0.209; in experiment [2] (first compound 0.02 µM), 0.445; in experiment [2] (first compound 0.2 µM), 0.441. Also, the relative viability is 0.296 in experiment [2] (first compound 0.6325 µM); 0.186 in experiment [2] (first compound 2 µM); 0.258 in experiment [3] (first compound 0.02 µM); 0.286 in experiment [3] (first compound 0.2 µM); 0.282 in experiment [3] (first compound 0.6325 µM); 0.272 in experiment [3] (first compound 2 µM). In addition, the relative viability in experiment [4] (first compound 0.02 µM) was found to be 0.979; in experiment [4] (first compound 0.2 µM), 0.663; in experiment [4] (first compound 0.6325 µM) it was 0.414; in experiment [4] (first compound 2 µM) it was 0.339.
In the case of LCLC-97TM1, the relative viability in experiment [1] (first compound 0.02 µM) was found to be 0.79; in experiment [1] (first compound 0.2 µM) it was 0.978; in experiment [1] (first compound 0.6325 µM), 0.837; in experiment [1] (first compound 2 µM) it was 0.745; in experiment [2] (first compound 0.02 µM) it was 0.463; in experiment [2] (first compound 0.2 µM), 0.525. Moreover, the relative viability in experiment [2] (first compound 0.6325 µM) amounted to 0.222; in experiment [2] (first compound 2 µM) it was 0.212; in experiment [3] (first compound 0.02 µM), 0.146; in experiment [3] (first compound 0.2 µM) it was 0.218; in experiment [3] (first compound 0.6325 µM), 0.165; in experiment [3] (first compound 2 µM), 0.176. Moreover, the relative viability in experiment [4] (first compound 0.02 µM) was 0.941; in experiment [4] (first compound 0.2 µM) it was 0.989; in experiment [4] (first compound 0.6325 µM), 0.941; in experiment [4] (first compound 2 µM), 0.671.
LCLC-103H: the relative viability in experiment [1] (first compound 0.02 µM) amounted to 0.493; in experiment [1] (first compound 0.2 µM), 0.417; in experiment [1] (first compound 0.6325 µM), 0.326; in experiment [1] (first compound 2 µM), 0.251; in experiment [3] (first compound 0.02 µM), 0.481; in experiment [3] (first compound 0.2 µM), 0.413. In addition, the relative viability was found to be 0.464 in experiment [3] (first compound 0.6325 µM); 0.384 in experiment [3] (first compound 2 µM); 0.845 in experiment [4] (first compound 0.02 µM); 0.717 in experiment [4] (first compound 0.2 µM); 0.454 in experiment [4] (first compound 0.6325 µM); 0.267 in experiment [4] (first compound 2 µM).
Consider LK-2, for which the relative viability came out at 0.42 in experiment [1] (first compound 0.02 µM); 0.29 in experiment [1] (first compound 0.2 µM); 0.256 in experiment [1] (first compound 0.6325 µM); 0.237 in experiment [1] (first compound 2 µM); 1.06 in experiment [2] (first compound 0.02 µM); 0.939 in experiment [2] (first compound 0.2 µM). For the same cell line, the relative viability in experiment [2] (first compound 0.6325 µM) was determined as 0.652; in experiment [2] (first compound 2 µM), 0.603; in experiment [3] (first compound 0.02 µM) it was 0.294; in experiment [3] (first compound 0.2 µM) it was 0.35; in experiment [3] (first compound 0.6325 µM) it was 0.264; in experiment [3] (first compound 2 µM), 0.201. Moreover, the relative viability in experiment [4] (first compound 0.02 µM) amounted to 1.6; in experiment [4] (first compound 0.2 µM), 1.02; in experiment [4] (first compound 0.6325 µM), 1.13; in experiment [4] (first compound 2 µM) it was 0.568.
For the cell line LOU-NH91, the relative viability in experiment [1] (first compound 0.02 µM) was determined as 0.566; in experiment [1] (first compound 0.2 µM), 0.598; in experiment [1] (first compound 0.6325 µM), 0.501; in experiment [1] (first compound 2 µM), 0.304; in experiment [2] (first compound 0.02 µM) it was 0.732; in experiment [2] (first compound 0.2 µM), 0.637. Moreover, the relative viability amounted to 0.455 in experiment [2] (first compound 0.6325 µM); 0.283 in experiment [2] (first compound 2 µM); 0.359 in experiment [3] (first compound 0.02 µM); 0.342 in experiment [3] (first compound 0.2 µM); 0.317 in experiment [3] (first compound 0.6325 µM); 0.309 in experiment [3] (first compound 2 µM). Moreover, the relative viability in experiment [4] (first compound 0.02 µM) came to 0.966; in experiment [4] (first compound 0.2 µM), 0.995; in experiment [4] (first compound 0.6325 µM), 0.731; in experiment [4] (first compound 2 µM), 0.315.
